In the supplement of paper PMC11208160:

Test: recombinant UMI read abundance after kanamycin selection (control-corrected) (log10(CPM+1)); higher = more efficient recombination; extreme values may be limits of the assay; sequences stand for … in AGTGCAGAGAAAATCGGCCAGTTTTCTCTGCCTGCAGTCCGCATGCCGTGGGACCCCTTGGGTTCTAACCTGTTGCCTAGATTTATGCAGCGGACTGCCTTTCTCCCAAAGTGATAAACCGG…AGGTTGGTTTCACT; site = the 11-nt donor
Summary of the method: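 For the IS621 bridge recombinase, a pooled Escherichia coli screen tested donor and donor-binding-loop pairs. Cells received the pair library together with a target plasmid encoding a fixed target and T7-inducible recombinase, then went onto IPTG (0.07 mM) plus kanamycin or unselected plates in duplicate. After PCR across the donor–target junction and sequencing, recombinant UMI counts were normalized to CPM, averaged, and scaled by control-derived factors. Each value is given as log10(CPM+1).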
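Also: IS621 bridge recombinase in Escherichia coli cells against a fixed T5 target plasmid.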

**Q.** With “TACGACGCATGGACCGGTTTTCCCGGTAATCCGTATTTGGG (site TACGACGCTCC)” as the sequence, how does the “recombinant UMI read abundance (log10)” value read?
**A.** 0.012

**Q.** Which “recombinant UMI read abundance (log10)” value does the source give for “TACGGAACATGGACCGGTTTTCCCGGTAATCCGTATTTGCT (site TACGGAACTAG)” here?
**A.** 0.249

**Q.** With “TACGGACCATGGACCGGTTTTCCCGGTAATCCGTATTTGTC (site TACGGACCTGA)” as the sequence, how does the “recombinant UMI read abundance (log10)” value read?
**A.** 0

**Q.** With “TACGGCCCATGGACCGGTTTTCCCGGTAATCCGTATTTGCG (site TACGGCCCTCG)” as the sequence, how does the “recombinant UMI read abundance (log10)” value read?
**A.** 0.024

**Q.** Which “recombinant UMI read abundance (log10)” value does the source give for “TACGTCACATGGACCGGTTTTCCCGGTAATCCGTATTTGGG (site TACGTCACTCC)” here?
**A.** 0.0239

**Q.** With “TACGTGACATGGACCGGTTTTCCCGGTAATCCGTATTTGCA (site TACGTGACTTG)” as the sequence, how does the “recombinant UMI read abundance (log10)” value read?
**A.** 2.29

**Q.** For “TACTAGACATGGACCGGTTTTCCCGGTAATCCGTATTTGCT (site TACTAGACTAG)”, which “recombinant UMI read abundance (log10)” value is on record?
**A.** 1.84

**Q.** With “TACTAGACATGGACCGGTTTTCCCGGTAATCCGTATTTGCT (site TACTCGACTAG)” as the sequence, how does the “recombinant UMI read abundance (log10)” value read?
**A.** 0.00336

**Q.** With “TACTAGACATGGACCGGTTTTCCCGGTAATCCGTATTTGCT (site TACTGGACTAG)” as the sequence, how does the “recombinant UMI read abundance (log10)” value read?
**A.** 0

**Q.** For “TACTAGACATGGACCGGTTTTCCCGGTAATCCGTATTTGCT (site TACTTGACTAG)”, which “recombinant UMI read abundance (log10)” value is on record?
**A.** 0

**Q.** For “TACTAGTCATGGACCGGTTTTCCCGGTAATCCGTATTTGGA (site TACTAGTCTTC)”, which “recombinant UMI read abundance (log10)” value is on record?
**A.** 1.59

**Q.** Which “recombinant UMI read abundance (log10)” value does the source give for “TACTCCTCATGGACCGGTTTTCCCGGTAATCCGTATTTGCC (site AACTCCTCTGG)” here?
**A.** 0.934

**Q.** For “TACTCCTCATGGACCGGTTTTCCCGGTAATCCGTATTTGCC (site CACTCCTCTGG)”, which “recombinant UMI read abundance (log10)” value is on record?
**A.** 1.86

**Q.** Which “recombinant UMI read abundance (log10)” value does the source give for “TACTCCTCATGGACCGGTTTTCCCGGTAATCCGTATTTGCC (site GACTCCTCTGG)” here?
**A.** 0.715

**Q.** With “TACTCCTCATGGACCGGTTTTCCCGGTAATCCGTATTTGCC (site TACTCCTCTGG)” as the sequence, how does the “recombinant UMI read abundance (log10)” value read?
**A.** 2.63

**Q.** Which “recombinant UMI read abundance (log10)” value does the source give for “TACTCGACATGGACCGGTTTTCCCGGTAATCCGTATTTGCT (site TACTAGACTAG)” here?
**A.** 0.956

**Q.** Which “recombinant UMI read abundance (log10)” value does the source give for “TACTCGACATGGACCGGTTTTCCCGGTAATCCGTATTTGCT (site TACTCGACTAG)” here?
**A.** 1.49

**Q.** For “TACTCGACATGGACCGGTTTTCCCGGTAATCCGTATTTGCT (site TACTGGACTAG)”, which “recombinant UMI read abundance (log10)” value is on record?
**A.** 0.00865

**Q.** With “TACTCGACATGGACCGGTTTTCCCGGTAATCCGTATTTGCT (site TACTTGACTAG)” as the sequence, how does the “recombinant UMI read abundance (log10)” value read?
**A.** 1.01

**Q.** With “TACTCGACATGGACCGGTTTTCCCGGTAATCCGTATTTGTC (site TACTCGACTGA)” as the sequence, how does the “recombinant UMI read abundance (log10)” value read?
**A.** 0.0119

**Q.** With “TACTGCGCATGGACCGGTTTTCCCGGTAATCCGTATTTGAC (site TACTGCGCTGT)” as the sequence, how does the “recombinant UMI read abundance (log10)” value read?
**A.** 1.9

**Q.** With “TACTGGTCATGGACCGGTTTTCCCGGTAATCCGTATTTGAC (site TACTGGTCTGT)” as the sequence, how does the “recombinant UMI read abundance (log10)” value read?
**A.** 1.07

**Q.** With “TACTTCGCATGGACCGGTTTTCCCGGTAATCCGTATTTGAT (site TACTTCGCTAT)” as the sequence, how does the “recombinant UMI read abundance (log10)” value read?
**A.** 0.583

**Q.** With “TACTTCTCATGGACCGGTTTTCCCGGTAATCCGTATTTGTT (site TACTTCTCTAA)” as the sequence, how does the “recombinant UMI read abundance (log10)” value read?
**A.** 1.35

**Q.** Which “recombinant UMI read abundance (log10)” value does the source give for “TACTTGACATGGACCGGTTTTCCCGGTAATCCGTATTTGAT (site TACTTGACTAA)” here?
**A.** 0.0207

**Q.** Which “recombinant UMI read abundance (log10)” value does the source give for “TACTTGACATGGACCGGTTTTCCCGGTAATCCGTATTTGAT (site TACTTGACTAC)” here?
**A.** 0.015

**Q.** Which “recombinant UMI read abundance (log10)” value does the source give for “TACTTGACATGGACCGGTTTTCCCGGTAATCCGTATTTGAT (site TACTTGACTAG)” here?
**A.** 0.00211

**Q.** With “TACTTGACATGGACCGGTTTTCCCGGTAATCCGTATTTGAT (site TACTTGACTAT)” as the sequence, how does the “recombinant UMI read abundance (log10)” value read?
**A.** 0.476

**Q.** For “TACTTGACATGGACCGGTTTTCCCGGTAATCCGTATTTGCG (site TACTTGACTAG)”, which “recombinant UMI read abundance (log10)” value is on record?
**A.** 0.00183
